From patent US20120142682A1, “ANT[…] INHIBITING BACTERIAL MONO-ADP-RIBOSYLT[…]” (UNIVERSITY OF GUELPH, priority 2010, published 2012)
Read-outs that look alike come from different tables or passages of the source.

Columns and labels:
[1] = test system: Saccharomyces cerevisiae cells expressing the catalytic domain of P. aeruginosa ExoA (ExoAc); experiment: Yeast-based compound screen; format: cell-based; details: compound 50 μM; for Protection in Yeast: w303 strain, growth restored
[2] = test system: ExoA intoxicated C38 cells; format: cell-based, Human
WT ExoAc = WT ExoAc (Pseudomonas aeruginosa, UniProt P11439); experiment: biochemical; format: binding, P. aeruginosa
cholix toxin = cholix toxin (Vibrio cholerae, UniProt Q5EK40); experiment: biochemical; format: biochemical
[3] = test system: C38 cells in the presence of 650 ng/mL of ExoA; experiment: Determination of half-maximal effective concentration (EC50) in C38 cells; format: cell-based, Human; details: 96 h
Procedure: Cell viability was determined using the same method as the cytoprotection assay. The EC50 values were extrapolated from each corresponding line-of-best-fit (Sigmoidal function in Origin 6.1), and the average values reported±the standard deviation.

[4] = read-out: Kd, second (lower affinity) binding constant (converted)
[5] = 650 ng/ml ExoA (10-times LD50), NAP and V30 with 0.5% DMSO

Sequence of cholix toxin (Q5EK40 33-666 limits assumed): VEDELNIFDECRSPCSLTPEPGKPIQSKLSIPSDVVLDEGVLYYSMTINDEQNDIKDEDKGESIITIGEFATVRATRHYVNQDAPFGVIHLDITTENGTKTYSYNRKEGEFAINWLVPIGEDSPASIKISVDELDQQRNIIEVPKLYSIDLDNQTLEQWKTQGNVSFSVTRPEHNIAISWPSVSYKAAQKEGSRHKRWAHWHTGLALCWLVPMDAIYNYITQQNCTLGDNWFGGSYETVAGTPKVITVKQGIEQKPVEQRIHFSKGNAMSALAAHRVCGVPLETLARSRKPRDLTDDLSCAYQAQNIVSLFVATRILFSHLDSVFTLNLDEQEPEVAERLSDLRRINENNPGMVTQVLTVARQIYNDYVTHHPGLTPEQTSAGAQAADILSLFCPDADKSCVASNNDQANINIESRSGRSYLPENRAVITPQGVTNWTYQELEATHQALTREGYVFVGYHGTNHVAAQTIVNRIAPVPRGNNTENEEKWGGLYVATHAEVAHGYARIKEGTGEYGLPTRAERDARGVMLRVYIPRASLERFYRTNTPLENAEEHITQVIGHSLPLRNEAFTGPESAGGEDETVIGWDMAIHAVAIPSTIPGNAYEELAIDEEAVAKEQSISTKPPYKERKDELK
Sequence of WT ExoAc (P11439 430-638 limits assumed): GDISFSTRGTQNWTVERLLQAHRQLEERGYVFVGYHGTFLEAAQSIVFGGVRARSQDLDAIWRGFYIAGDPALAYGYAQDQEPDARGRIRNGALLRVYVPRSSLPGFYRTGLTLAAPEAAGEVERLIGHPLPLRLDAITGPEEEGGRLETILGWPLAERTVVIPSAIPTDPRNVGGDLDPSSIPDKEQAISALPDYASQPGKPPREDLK

SMILES | Protection in Yeast [1] | protection of C38 cells against ExoA (in words) [2] | further results
Nc1ccc2c3c(cccc13)C(=O)NC2=O [Compound 4-NAP, reference compound] | ++ (25-50% (++)) |  | 
O=C1NN=C(CN2CCOCC2)c2c[nH]c3cccc1c23 [Compound P1] | − (Compounds showing less than 5% growth were scored (−)) |  | protection of C38 cells from lethal action of high dose ExoA (morphology) [2]: completely protected; difference in affinity between the two binding sites (WT ExoAc): ~50 fold; Kd (WT ExoAc; read-out: Kd): 10 nM; Kd (WT ExoAc; [4]): 650 nM; Ki (cholix toxin; read-out: Ki): 22 ± 4 nM; EC50 [3, 5]: 2900 ± 800 nM
CN(C)Cc1nc2cccc3c2n1CCNC3=O [Compound P4] | − (Compounds showing less than 5% growth were scored (−)) |  | Kd (WT ExoAc; read-out: Kd): 1380 ± 30 nM; IC50 (cholix toxin; read-out: IC50): 960 nM; Ki (cholix toxin; read-out: Ki): 132 ± 7 nM; EC50 [3, 5]: 12600 ± 3300 nM
O=C1NCCn2c(CCc3ccc(CN4CCCC4)cc3)nc3cccc1c32 [Compound P5] | − (Compounds showing less than 5% growth were scored (−)) |  | Kd (WT ExoAc; read-out: Kd): 750 ± 10 nM; IC50 (cholix toxin; read-out: IC50): 4460 nM; Ki (cholix toxin; read-out: Ki): 582 ± 124 nM; EC50 [3, 5]: 16700 ± 1900 nM
O=C1NCC2c3cc(S(=O)(=O)O)ccc3Oc3cccc1c32 (stereo not shown) [Compound P8] | − (Compounds showing less than 5% growth were scored (−)) | modest | difference in affinity between the two binding sites (WT ExoAc): ~50 fold; Kd (WT ExoAc; read-out: Kd): 160 nM; Kd (WT ExoAc; [4]): 5210 nM; IC50 (cholix toxin; read-out: IC50): 1040 ± 136 nM; Ki (cholix toxin; read-out: Ki): 136 ± 3 nM
O=c1cc(NCCNc2cc(=O)oc3ccccc23)c2ccccc2o1 [Compound V1] | − (Compounds showing less than 5% growth were scored (−)) |  | 
CN1CCN(c2c(N)c(=O)oc3ccccc23)CC1 [Compound V2] | − (Compounds showing less than 5% growth were scored (−)) |  | 
CCN(CC)CCn1c(NCc2nc3ccccc3n2Cc2ccccc2)nc2ccccc21 [Compound V3] | − (Compounds showing less than 5% growth were scored (−)) |  | 
O=C(NCCNc1ccnc2cc(Cl)ccc12)c1ccccc1F [Compound V4] | − (Compounds showing less than 5% growth were scored (−)) |  | 
O=C(CCCC(=O)Nc1ccc(F)c(Cl)c1)Nc1ccc(F)c(Cl)c1 [Compound V5] | toxic (any compound that reduced cell viability to less than 30%) |  | 
Nc1c(C(=O)Nc2ccc(S(N)(=O)=O)cc2)sc2nc3c(cc12)CCCC3 [Compound V6] | − (Compounds showing less than 5% growth were scored (−)) |  | 
O=C(Nc1c2ccccc2nc2ccccc12)c1ccc([N+](=O)[O-])cc1 [Compound V7] | toxic (any compound that reduced cell viability to less than 30%) |  | 
COc1ccc(Nc2nc(N3CCN(CCO)CC3)nc3ccccc23)c(OC)c1 [Compound V8] | − (Compounds showing less than 5% growth were scored (−)) |  | 
Nc1c(NCCCN2CCOCC2)c2ccccc2oc1=O [Compound V9] | − (Compounds showing less than 5% growth were scored (−)) | moderate activity | 
Cc1cccc(Cn2c(N3CCCCC3C)nc3c2c(=O)[nH]c(=O)n3C)c1 (stereo not shown) [Compound V10] | − (Compounds showing less than 5% growth were scored (−)) | Weak protection | 
CC1(C)C(=O)N(CC(O)Cn2cnc3ccccc32)C(=O)N1CN1C(=O)N(CC(O)Cn2cnc3ccccc32)C(=O)C1(C)C (stereo not shown) [Compound V11] | − (Compounds showing less than 5% growth were scored (−)) | Weak protection | 
Cn1c(=O)c2[nH]c(CN3CCc4ccccc4C3)nc2n(C)c1=O [Compound V12] | − (Compounds showing less than 5% growth were scored (−)) | moderate activity | LD50 of ExoA in the presence of compound [2]: 228 ± 12 ng/mL; increase of the LD50 of ExoA [2]: ~3 fold
O=C(C1CCCN(Cc2c[nH]c3ccccc23)C1)N1CCCCCC1 (stereo not shown) [Compound V13] | − (Compounds showing less than 5% growth were scored (−)) |  | 
Cc1[nH]c2ccccc2c1CN1CCN(c2ccccn2)CC1 [Compound V14] | − (Compounds showing less than 5% growth were scored (−)) |  | 
CCn1c(SCc2nc3ccccc3c(=O)[nH]2)nnc1-c1ccc(Cl)cc1 [Compound V15] | + (5-25% (+)) | moderate activity | LD50 of ExoA in the presence of compound [2]: 208 ± 41 ng/mL; protection in yeast against ExoAc (in words) [1]: weak protection

SMILES | Protection in Yeast [1] | protection of C38 cells against ExoA (in words) [2] | further results
Cc1cc(Nc2ccc(O)cc2)c2ccccc2n1.Cl [Compound V16] | − (Compounds showing less than 5% growth were scored (−)) | Weak protection | 
Cn1c(=O)c2[nH]c(CNCc3ccccc3Cl)nc2n(C)c1=O [Compound V17] | − (Compounds showing less than 5% growth were scored (−)) | moderate activity | 
COc1ccc(NC(=O)CC2C(=O)N(c3ccc(Cl)cc3)C(=S)N2CCc2ccncc2)cc1 (stereo not shown) [Compound V18] | − (Compounds showing less than 5% growth were scored (−)) |  | 
Cn1c(=O)[nH]c(=O)c2c1nc(N1CCCCC1)n2CCCSc1nc2ccccc2s1 [Compound V19] | − (Compounds showing less than 5% growth were scored (−)) |  | 
O=C(CC1C(=O)NCCN1C(=O)CN1CCN(CCO)CC1)Nc1ccccc1 (stereo not shown) [Compound V20] | − (Compounds showing less than 5% growth were scored (−)) |  | 
COC(=O)c1[nH]c(C)c(C(=O)C2=C(O)C(=O)N(CCCN3CCOCC3)C2c2ccccn2)c1C (stereo not shown) [Compound V21] | − (Compounds showing less than 5% growth were scored (−)) | Weak protection | 
CN(C)CCNc1c(N)c(=O)oc2ccccc12 [Compound V22] | − (Compounds showing less than 5% growth were scored (−)) | Weak protection | 
CN1CCN(CCCNc2c(N)c(=O)oc3ccccc23)CC1 [Compound V23] | ++ (25-50% (++)) | moderate activity | LD50 of ExoA in the presence of compound [2]: 199 ± 30 ng/mL; protection in yeast against ExoAc (in words) [1]: modest protection
CCN(CC)CCn1c(NCc2ccc(F)cc2)nc2ccccc21.Cl.Cl [Compound V24] | − (Compounds showing less than 5% growth were scored (−)) | moderate activity | LD50 of ExoA in the presence of compound [2]: 238 ± 16 ng/mL
CCOC(=O)c1[nH]c(C)c(C(=O)C2=C(O)C(=O)N(CCCN3CCOCC3)C2c2cccc(F)c2)c1C (stereo not shown) [Compound V25] | − (Compounds showing less than 5% growth were scored (−)) | Weak protection | 
Brc1cccc(CNc2nc3ccccc3n2CCN2CCOCC2)c1 [Compound V26] | − (Compounds showing less than 5% growth were scored (−)) | Weak protection | 
CCc1ccc2ncc(C(=O)O)c(O)c2c1 [Compound V27] | − (Compounds showing less than 5% growth were scored (−)) |  | 
CCOC(=O)c1cnc2ccc(OCC)cc2c1Nc1ccc(C)cc1C [Compound V28] | toxic (any compound that reduced cell viability to less than 30%) |  | 
CC1CCCCN1c1nc2c(c(=O)[nH]c(=O)n2C)n1Cc1ccccc1 (stereo not shown) [Compound V29] | + (5-25% (+)) | Weak protection | protection in yeast against ExoAc (in words) [1]: weak protection
CC1=C(C)C2C(=O)CC(SCC(=O)NCCO)=CC2S1 (stereo not shown) [Compound V30] | − (Compounds showing less than 5% growth were scored (−)) | excellent protection | protection of C38 cells from lethal action of high dose ExoA (morphology) [2]: completely protected; Kd (WT ExoAc): 931 ± 74 nM; IC50 (cholix toxin): 2810 nM; Ki (cholix toxin): 367 ± 3 nM; EC50 ([3]; Homo sapiens): 8800 ± 500 nM
CC(=O)Nc1c(Nc2ccccc2)c2ccccc2oc1=O [Compound V31] | + (5-25% (+)) | Weak protection | protection in yeast against ExoAc (in words) [1]: weak protection
O=C1NC(=O)c2cccc3cccc1c23 [NAP, 1,8-naphthalimide, reference compound] | ++++ (Compounds found to restore growth to 50-75% (++++)) | excellent protection | Kd (WT ExoAc): 950 ± 30 nM; EC50 ([3]; Homo sapiens): 3800 ± 900 nM
CN(C)CC(=O)Nc1ccc2[nH]c(=O)c3ccccc3c2c1.Cl [PJ34, N-(6-oxo-5,6-dihydrophenanthridin-2-yl)-(N,N-dimethylamino)acetamide hydrochloride, reference compound] | − (Compounds showing less than 5% growth were scored (−)) |  | Kd (WT ExoAc): 820 ± 54 nM; IC50 (cholix toxin): 280 ± 70 nM; Ki (cholix toxin): 37 ± 9 nM
O=c1[nH]c2ccccc2c2ccccc12 [PJ97A, reference compound] |  | strong protection | LD50 of ExoA in the presence of compound [2]: > 750 ng/mL; increase of the LD50 of ExoA [2]: ~12 fold; Kd (WT ExoAc; read-out: Kd): 393 ± 64 nM; IC50 (cholix toxin; read-out: IC50): 4670 ± 175 nM; Ki (cholix toxin; read-out: Ki): 610 ± 175 nM
